The values below are quoted from earlier work in patent US20260207488A1, “Liquid pharmaceutical composition containing flecainide and process for the preparation thereof” (Colonis Pharma Ltd, priority 2022, published 2026).

For series [1] the following is noted: water.

Molecules are shown by their SMILES.

As to `CC(=O)O.O=C(NCC1CCCCN1)c1cc(OCC(F)(F)F)ccc1OCC(F)(F)F` (centres unmarked) [Flecainide Acetate, N-(2-piperidinylmethyl)-2,5-bis(2,2,2-trifluoroethoxy)benzamide monoacetate], the “solubility (BCS)” value is “high solubility”. Further, the aqueous solubility result in series [1] is recorded as “about 48.0 mg/mL”.
